Measured values: patent US8703712B2, “Targeting cancer stem cells with DR5 agonists” (The UAB Research Foundation, priority 2011, dated 2014)

B1: TRAIL: Super Killer TRAIL™ purchased from Alexis Biochemicals; death receptor ligand (protein, UniProt P50591 39-281, looked up)
extracellular domain: TNELKQMQDKYSKSGIACFLKEDDSYWDPNDEESMNSPCWQVKWQLRQLVRKMILRTSEETISTVQEKQQNISPLVRERGPQRVAAHITGTRGRSNTLSSPNSKNEKALGRKINSWESSRSGHSFLSNLHLRNGELVIHEKGFYYIYSQTYFRFQEEIKENTKNDKQMVQYIYKYTSYPDPILLMKSARNSCWSKDAEYGLYSIYQGGIFELKENDRIFVSVTNEHLIDMDHEASFFGAFLVG
modifications: extracellular domain Super Killer TRAIL engineered soluble form
notes: Super Killer TRAIL™ purchased from Alexis Biochemicals; death receptor ligand

What was measured:
SUM159 ALDH+ cells = assay: Ex vivo treatment of sorted BCSC and tumor implantation; type: in vivo, NOD/SCID mice; conditions: cells treated ex vivo with 500 nM Adriamycin for 3 hours, implanted into mammary fat pad
Procedure: (§1) FIGS. 14A and 14B are graphs showing ex vivo treatment of sorted BCSCs inhibited tumorigenesis and progression in NOD/SCID mice. The graphs represent average tumor size (product of two diameters).
(§2) • Drugs and Antibodies. Adriamycin and Taxol were purchased from Sigma Aldrich Chemical Co. (St. Louis, Mo.) and prepared as 10 mM stock solutions in distilled H2O or DMSO, respectively. Purified TRA-8 (IgG1) mAb was prepared as described previously (Ichikawa et al., Nat. Med. 7:954-60 (2001) and WO01/83560). Isotype-specific IgG1 control antibody was obtained from Southern Biotechnology Associates (Birmingham, Ala.). Anti-DR4 mAb 2E12 (IgG1, k) was described previously (WO03/37913). Super Killer TRAIL™ was purchased from Alexis Biochemicals (Plymouth Meeting, Pa.). Conjugated antibodies APC mouse anti-human CD44, PE-Cy7 rat anti-mouse CD44, and corresponding isotype control antibodies were purchased from BD Pharmingen (San Jose, Calif.). […] BCSC markers were analyzed on attached bulk cell populations. […] Samples were sorted on a Becton-Dickinson-FACSAriaII™ or analyzed on Becton-Dickinson-LSRII™ flow cytometer (Chicago, Ill.). Data were evaluated using FlowJo software (FlowJo; Ashland, Oreg.). • DR5 Expression and Functional Caspase Activation. […] Samples were analyzed by flow cytometry for DR5 expression on the ALDH^+/CD44^+/CD24^− subpopulation. […]

2LMP ALDH+ cells [1] = assay: as above; type: in vivo, NOD/SCID mice; conditions: cells treated ex vivo with 500 nM Adriamycin for 3 hours, 4×10^4 cells into mammary fat pad; by day 51
Procedure: as §1, §2

[2] = tested on: 2LMP and SUM159 ALDH+ tumorsphere cells; assay: Secondary tumorsphere formation; type: cell-based, human; conditions: 2LMP and SUM159 sphere cells; TRAIL and 2E12 at concentrations equimolar to TRA-8
Procedure: Bars are normalized relative to untreated control and represent quadruplicate runs. Error bars denote standard deviation (SD).
as §2, with “Calif.). ALDEFLUOR® kit including diethylaminobenzaldehyde (DEAB) negative control was obtained from StemCell Technologies (Durham, N.C.). Cleaved caspase-8 rabbit mAb and cleaved caspase-3 rabbit mAb were purchased from Cell Signaling (Billerica, Mass.). Secondary antibodies, Alexa tluor 405 goat anti-rabbit IgG and Alexa fluor 647 goat anti-mouse IgG1 were purchased from Invitrogen (Carlsbad, Calif.). • Cells and Cell Culture. The 2LMP subclone of the human breast cancer cell line MDA-MB-231 was maintained in improved MEM supplemented with 10% FBS (Hyclone; Logan, Utah).” for “Calif.).”

2LMP ALDH+ cells [3] = assay: Annexin V-propidium iodide apoptosis assay (flow cytometry); type: cell-based, human; conditions: 5 μM MRK003
Procedure: 2LMP ALDH^+ cells were sorted by flow cytometry and treated with MRK003 GSI (or DMSO) for 24 hours followed by TRA-8 (or media) for an additional 24 hours before measuring ATP levels. […] Similar results were found in studies using CSC-enriched cell populations derived from sphere cultures. The results were confirmed using annexin V-propidium iodide assays and flow cytometry to measure apoptosis.

Row | Molecule | mice that developed tumors (SUM159 ALDH+ cells) | mice that developed tumors (2LMP ALDH+ cells [1]) | inhibition of secondary tumorsphere formation (in words) [2] | annexin-V-positive (2LMP ALDH+ cells [3])
1 | COc1cccc2c1C(=O)c1c(O)c3c(c(O)c1C2=O)C[C@@](O)(C(=O)CO)C[C@@H]3O[C@H]1C[C@H](N)[C@H](O)[C@H](C)O1 [Adriamycin] | zero out of five | Five out of five | did not completely inhibit | 
2 | O=S1(=O)N[C@@]2(CN1CC(F)(F)F)[C@@H]1CC[C@H]2Cc2ccc(/C=C/CN3CCC(C(F)(F)F)CC3)cc2C1 [MRK003] |  |  |  | 36%
3 | CC(=O)O[C@H]1C(=O)[C@@]2(C)[C@H]([C@H](OC(=O)c3ccccc3)[C@]3(O)C[C@H](OC(=O)[C@H](O)[C@@H](NC(=O)c4ccccc4)c4ccccc4)C(C)=C1C3(C)C)[C@]1(OC(C)=O)CO[C@@H]1C[C@@H]2O [Taxol] |  |  | did not completely inhibit | 
4 | B1 |  |  | only partially inhibitory | 
